The series can be described thus: method code SF, from Hansch, C. & Leo, A. (1987). Log P database [Dataset]. Pomona College Medicinal Chemistry Project.

The compound `O=C1C(N2CCOCC2)=C(N2CC2)C(=O)C(N2CCOCC2)=C1N1CC1` displayed a log partition coefficient (logP) of 0.52.

`Cc1cccc(OC(=O)N(C)C)c1` displayed a logP of 2.05.

`CCc1ccc2c(c1)N=C(C)NS2(=O)=O` had a lipophilicity (logP) of 1.25.

As for `CCCC(=O)OCC(O)CO` (configuration not stated), the logP is -0.17.

In turn, `NC(=O)Oc1ccccc1` displayed a logP of 1.08.

`CC1=Nc2cc(Cl)ccc2S(=O)(=O)N1` gave a logP of 1.21.

`CC1=Nc2ccc(I)cc2S(=O)(=O)N1` came in with a logP of 1.61.

For the compound `O=c1nc[nH]c(=O)[nH]1`, the log partition coefficient (logP) was -1.87.

Take `CCCCNC`: the logP came to 1.33.

Regarding `O=S(=O)(Oc1ccccc1)c1ccccc1`, the lipophilicity (logP) came to 3.06.

`CCC(C)c1ccccc1OC(=O)N(C)C` (configuration not stated) returned a log partition coefficient (logP) of 3.31.

`Cc1cccc(Cl)c1` gave a logP of 3.28.

In the case of `NN(c1ccccc1)c1ccccc1`, the logD (pH 13.0) was 2.8.

With `NC(=S)N/N=C/c1ccc(O)cn1`, the pH-dependent lipophilicity (logD) (pH 7.4) was 0.69.

In turn, `CCCOCCC(=O)N(C)c1ccc(S(=O)(=O)N(C)C)cc1` registered a logP of 1.26.

Regarding `CC#CC`, the logP was 1.46.

`Nc1ncc2ncn(COCCO)c2n1`: the log partition coefficient (logP) was -0.96.

For `O=C(O)C(Cl)(Cl)Cl`, the logP came to 1.33.

With `O=[N+]([O-])CCO`, the logP was -0.42.

Consider `FC(F)(F)c1cccc2cccnc12`, for which the logP came to 2.5.

Consider `FC(F)(F)Br`, for which the logP is 1.86.

Compound `CCC(C)NC(=O)C(=Cc1ccccc1)Cc1ccccc1` (configuration not stated) came in with a logP of 3.99.

Compound `Cc1nnc(SCc2ccccc2)o1` yielded a logP of 1.74.

For the compound `COc1ccc2ncccc2c1`, the logP came to 2.2.

In the case of `O=C(CNC(=O)c1ccccc1)Oc1ccc(F)cc1`, the logP worked out at 2.46.

For `CCN(CC)c1c(C)n(C)c(=O)n(-c2ccccc2)c1=O`, for the setting “pH 7.4”, the pH-dependent lipophilicity (logD) worked out at 2.11.

`FC(F)(F)c1ccccc1`: the logP turned out to be 2.9.

`O=c1cc2ccccc2n[nH]1`: the logP worked out at 0.68.

With `COc1cc(C=O)ccc1OCCOC(=O)c1cccc(Cl)c1`, the logP came out at 3.67.

With `CC1CO1` (configuration not stated), the logP was 0.03.

Consider `CC(=O)N(c1ccccc1)S(C)(=O)=O`, for which the logP was determined as 0.29.

For `CC(=O)Nc1cccc(N(C)C)c1`, the logP stood at 1.29.

Turning to `CC(=O)O[C@@H]1[C@@H](OC(C)=O)[C@H](OC(C)=O)CO[C@H]1NC(=O)N(CCCl)N=O`, the logP stood at 1.05.

For `CN(N=O)C(=O)N[C@H]1C(O)O[C@H](CO)[C@@H](O)[C@@H]1O` (some centres not stated), the log partition coefficient (logP) is -1.45.

With `COc1cccc(OC)n1`, the logP is 2.3.

`COc1ccc(OC(=O)N(C)C)cc1` showed a logP of 1.53.

As to `CC(=O)c1ccc2ccccn12`, the logP is 2.06.

The compound `CN1CCCC[C@H]1c1cccnc1` came in with a logD (pH 11.0) of 0.96.

As for `CCc1ccc(OC(C)=O)cc1`, the logP worked out at 2.56.

As to `O=c1cc(-c2ccc(O)cc2)oc2ccccc12`, the lipophilicity (logP) was determined as 3.2.

In turn, `CON(C)C(=O)Nc1ccc2c(c1)Cc1ccccc1-2` came in with a logP of 3.67.

As for `Nc1ccc2cc3ccccc3nc2c1`, the logP was determined as 2.19.

For the compound `CC1=Nc2cc([N+](=O)[O-])c(Cl)cc2S(=O)(=O)N1`, the logP is 1.42.

The compound `O=C(NP(=O)(N1CC1)N1CC1)c1cc(I)ccc1I` registered a lipophilicity (logP) of 1.35.

The compound `Cc1nn(-c2ccccc2)c(C)c1N=O` had a logP of 2.28.

`O=C1C2(Cl)C3(Cl)C4(Cl)C(Cl)(Cl)C5(Cl)C3(Cl)C1(Cl)C5(Cl)C24Cl` (configuration not stated) returned a logP of 5.41.

`CCOC(=O)c1cccs1` returned a lipophilicity (logP) of 2.33.

`Nc1ccc2nc3ccccc3cc2c1` registered a lipophilicity (logP) of 2.62.

For the compound `O=CC=Cc1ccco1`, the logP turned out to be 1.15.

Compound `CNCc1ccccc1` gave a pH-dependent lipophilicity (logD) (pH 13.0) of 1.52.

Regarding `O=C(O)c1ccco1`, the lipophilicity (logP) amounted to 0.64.

As to `CN(C)/N=C/CCc1ccccc1`, the logD (pH 7.4) is 2.05.

Turning to `NC(=O)N/N=C/c1ccccc1`, the logP amounted to 1.27.

With `O=C(Nc1ccccc1)NC1CC(O)C(CO)OC1O` (configuration not stated), the logP is -0.61.

Under “pH 7.0”, `CC(=O)Oc1ccc(C(N)=O)cc1` gave a pH-dependent lipophilicity (logD) of 0.27.

For `N#CN=[N+]([O-])c1ccc(Cl)cc1`, the log partition coefficient (logP) is 2.33.

As to `O=C(O)C(CO)c1ccccc1` (configuration not stated), the logD (pH 1.0) is 0.77.

Take `CCOC(=O)C(=Cc1ccc(Cl)cc1)C(C)=O`: the log partition coefficient (logP) worked out at 3.04.

`CC(=O)OCC1=C(C(=O)O)N2C(=O)C(NC(=O)COc3ccccc3)C2SC1` (configuration not stated) registered a pH-dependent lipophilicity (logD) (pH 3.0) of 0.26.

`CN(C)C(=O)COc1ccccc1` showed a logP of 0.78.

In turn, `COC1(NC(=O)CSC(F)F)C(=O)N2C(C(=O)OCC(=O)C(C)(C)C)=C(CSC3(C)N=NN=N3)CSC21` (configuration not stated) came in with a pH-dependent lipophilicity (logD) (pH 6.8) of 2.31.

On to `CC(=NNC(=S)N(C)C)c1cc(C)ccc1O`, for which the log partition coefficient (logP) is 2.26.

Consider `CC(=O)C(=Cc1cccc(Cl)c1)C(C)=O`, for which the logP worked out at 2.26.

`CN(Cc1ccccc1)c1ccccc1` returned a log distribution coefficient (logD) (pH 13.0) of 4.22.

`N#C/C=C/c1ccccc1`: the logP worked out at 1.96.

As for `CC(C)=NO`, the lipophilicity (logP) stood at 0.12.

`C[C@@H]1CC[C@H](C)N1C(=O)Nc1ccccc1` yielded a logP of 2.33.

On to `COc1ccc(-c2ncc[nH]2)c(OC)c1`, for which the logP was determined as 1.72.

For the compound `Cc1oc2ccccc2c(=O)c1C`, the lipophilicity (logP) was determined as 2.31.

In turn, `CNP(=O)(OC)Oc1cc(Cl)c(Cl)cc1Cl` (configuration not stated) showed a logP of 3.06.

In turn, `Cc1cc(C)ncn1` gave a lipophilicity (logP) of 0.62.

`CCCCN(CCCC)CC(O)c1ccccc1` (configuration not stated) had a pH-dependent lipophilicity (logD) (pH 13.0) of 3.16.

In turn, `O=S(Cc1ccccn1)c1nc2ccccc2[nH]1` (configuration not stated) gave a logD (pH 5.0) of 1.33.

As for `OC(c1ccccc1)(c1ccccc1)c1ccccc1`, the log partition coefficient (logP) was 3.68.

With `CCN(CC)c1ccc(CO)cc1`, the logP stood at 2.29.

Turning to `CSc1ccc(NC(C)=O)cc1`, the logP was found to be 2.03.

Compound `CCOC(=O)NC` returned a logP of 0.34.

Take `CCOC(=O)C(=Cc1ccc(Br)cc1)C(=O)OCC`: the logP worked out at 4.02.

Consider `O=C(Oc1ccccc1)Oc1ccccc1`, for which the log partition coefficient (logP) came to 3.28.

In turn, `CNc1nccn2cc(-c3ccc(S(C)=O)cc3OC)nc12` (configuration not stated) registered a lipophilicity (logP) of 1.88.

In turn, `C1=CCCCC1` displayed a logP of 2.86.

Regarding `CN(C)C(=O)Oc1ccccc1`, the log partition coefficient (logP) came out at 1.56.

Regarding `COc1ccc(C(N)=O)cc1/N=N/N(C)C`, the logP was determined as 0.44.

On to `NS(=O)(=O)NS(=O)(=O)Nc1ccccc1`, for which the log partition coefficient (logP) is 0.02.

For the compound `CCOC(=O)c1cccnc1`, the log partition coefficient (logP) amounted to 1.34.

Compound `Cn1nnnc1SCC1=C(C(=O)O)N2C(=O)C(NC(=O)Cc3cccs3)C2SC1` (configuration not stated) yielded a logD (pH 3.0) of 0.

As for `Cc1n[nH]cc1[N+](=O)[O-]`, the lipophilicity (logP) stood at 0.19.

Regarding `COc1ccccc1N`, the lipophilicity (logP) turned out to be 1.18.

Compound `CCOC(=O)C(F)(F)C(F)(F)F` had a lipophilicity (logP) of 2.12.

On to `CN(C)CCc1cccs1`, for which the logP came out at 1.99.

Take `NC(=O)c1cccc(N)c1`: the lipophilicity (logP) is -0.33.

Take `CCOc1cccc(NC(C)=O)c1`: the logD (pH 7.0) was found to be 1.82.

`CCOP(=O)(OCC)Oc1ccc(SC)c(Cl)c1`: the logP was 3.48.

On to `CNC(C)=O`, for which the logP is -1.05.

With `CCOC(=O)C(C#N)=Cc1ccccc1`, the logP came out at 2.43.

Turning to `Nc1nc(N)c2ncn(COCCO)c2n1`, the pH-dependent lipophilicity (logD) (pH 13.0) is -1.06.

On to `COC(OC)OC`, for which the logD (pH 13.0) is 0.25.

`CCC(C)NC(=O)/C=C/c1ccccc1` (configuration not stated) came in with a lipophilicity (logP) of 2.85.

For the compound `Cc1c(N(C)C)c(=O)n(C)c(=O)n1-c1ccc(Cl)cc1`, the logD (pH 7.4) came out at 2.32.

`N#CCc1cccs1` came in with a lipophilicity (logP) of 1.26.

Take `Nc1ccc([N+](=O)[O-])cc1N`: the logP turned out to be 0.88.

`COC(=O)c1c(C)n(C)c2c1c1c(O)c3c(O)c(C)c4c(c32)C(=O)C(C)(OC=CC(OC)C(C)C(OC(C)=O)C(C)C(O)C(C)C(O)C(C)C=CC=C(C)C(=O)N1)O4` (configuration not stated) came in with a log partition coefficient (logP) of 1.46.

Take `OC(c1ccccc1)C1CCCCN1` (configuration not stated): the log partition coefficient (logP) is 1.28.

As to `O=c1[nH]cc(Br)c(=O)[nH]1`, the logP is -0.21.

Compound `Nc1ccccc1S` showed a log partition coefficient (logP) of 1.43.

`NC(=S)NN=Cc1ccccc1` yielded a log partition coefficient (logP) of 1.86.

Turning to `O=[N+]([O-])c1ccsc1`, the log partition coefficient (logP) was determined as 1.55.

Turning to `CC(=O)Nc1ccc2c(c1)S(=O)(=O)c1ccc(C)cc1C2=O`, the logP worked out at 2.76.

`CCOC(=O)c1ccc([N+](=O)[O-])cc1`: the logD (pH 7.0) was found to be 2.33.

Turning to `CCc1ccccc1OC(C)=O`, the log partition coefficient (logP) came to 2.42.

Turning to `NC(=O)c1ccc(N)nc1`, the logD (pH 7.0) was 0.7.

The compound `O=c1cn[nH]c2ccccc12` registered a log partition coefficient (logP) of 0.82.

The compound `CC(C)CO` gave a log partition coefficient (logP) of 0.65.

As to `CC1(C)N=C(N)N=C(N)N1c1cccc(C#N)c1`, the logD (pH 13.0) is -0.24.

For `O=S(=O)(N=[N+]([O-])c1ccccc1)c1ccccc1`, the log partition coefficient (logP) is 2.33.

`COc1ccc(C=O)cc1` came in with a logD (pH 7.0) of 1.61.

In the case of `CNC=CCCc1cccnc1`, the logD (pH 11.0) was determined as 1.13.

Compound `CCN(CC)c1ccc(NC(=O)N(C)OC)cc1` gave a logP of 2.33.

For the compound `O=C(Nc1ccccc1)Nc1ccc(Cl)c(Cl)c1`, the logP amounted to 4.7.

The compound `CN(C(=O)CCI)c1ccc(S(=O)(=O)N(C)C)cc1` came in with a logP of 1.39.

In the case of `CC(=O)N[C@@H]1CC(=O)N(c2ccccc2)C1=O`, the logP was -0.33.

Compound `CCOc1ccc(OC(C)=O)cc1` showed a logP of 1.95.

`CN(C)CCC1CN(C)C(=S)c2cccnc2O1` (configuration not stated): the logP was 1.08.

As to `CC[C@H]1OC(=O)[C@H](C)[C@@H](O[C@H]2C[C@@](C)(OC)[C@@H](O)[C@H](C)O2)[C@H](C)[C@@H](O[C@@H]2O[C@H](C)C[C@H](NC)[C@H]2O)[C@](C)(O)C[C@@H](C)C(=O)[C@H](C)[C@@H](O)[C@]1(C)O`, the logP worked out at 2.21.

`CC(=S)Oc1ccccc1` came in with a logP of 1.91.

`Nc1nc(=O)c2ccccc2o1` registered a logP of 0.27.

Take `O=C1C=CC(=O)N1`: the lipophilicity (logP) is -0.29.

`Cc1cccc2cccnc12` registered a log partition coefficient (logP) of 2.6.

The compound `Cc1ccc2[nH]c(CCCCc3nc4cc(C)ccc4[nH]3)nc2c1` gave a lipophilicity (logP) of 1.64.

In the case of `C1OCOCO1`, the lipophilicity (logP) is -0.43.

Take `O=C(O)c1nccc2ccccc12`: the pH-dependent lipophilicity (logD) (pH 2.0) is -0.53.

`CC1(C)N=C(N)N=C(N)N1c1ccc(I)cc1` showed a logD (pH 13.0) of 1.39.

The values are drawn from the SangsterLogP compilation.
